Calls of active or inactive are those of the source. The rule behind the calls is not given here.
What was measured:
NCI-H460 [1] = assay: Cytotoxicity against human NCI-H460 cells assessed as growth inhibition at 0.1 ug/ml after 24 hrs by MTT assay; type: functional; conditions: NCI-H460, 24 h, read-out: GI
[2] = Cytotoxicity against human HO8910 cells assessed as growth inhibition at 100 ug/ml after 24 hrs by MTT assay; type: functional; conditions: HO-8910, 24 h, read-out: GI
[3] = Cytotoxicity against human HO8910 cells assessed as growth inhibition at 1 ug/ml after 24 hrs by MTT assay; type: functional; conditions: HO-8910, 24 h, read-out: GI
[4] = Cytotoxicity against human HO8910 cells assessed as growth inhibition at 0.1 ug/ml after 24 hrs by MTT assay; type: functional; conditions: HO-8910, 24 h, read-out: GI
KB [5] = assay: Cytotoxicity against human KB cells assessed as growth inhibition at 100 ug/ml after 24 hrs by MTT assay; type: functional; conditions: read-out: GI
KB [6] = assay: Cytotoxicity against human KB cells assessed as growth inhibition at 10 ug/ml after 24 hrs by MTT assay; type: functional; conditions: read-out: GI
KB [7] = assay: Cytotoxicity against human KB cells assessed as growth inhibition at 1 ug/ml after 24 hrs by MTT assay; type: functional; conditions: read-out: GI
KB [8] = assay: Cytotoxicity against human KB cells assessed as growth inhibition at 0.1 ug/ml after 24 hrs by MTT assay; type: functional; conditions: read-out: GI
Bel-7402 [9] = assay: Cytotoxicity against human Bel7402 cells assessed as growth inhibition at 100 ug/ml after 24 hrs by MTT assay; type: functional; conditions: Bel-7402, 24 h, read-out: GI
Bel-7402 [10] = assay: Cytotoxicity against human Bel7402 cells assessed as growth inhibition at 10 ug/ml after 24 hrs by MTT assay; type: functional; conditions: Bel-7402, 24 h, read-out: GI
Bel-7402 [11] = assay: Cytotoxicity against human Bel7402 cells assessed as growth inhibition at 1 ug/ml after 24 hrs by MTT assay; type: functional; conditions: Bel-7402, 24 h, read-out: GI
SMMC-7721 = assay: Induction of apoptosis in human SMMC7721 cells at 5 mM after 96 hrs; type: functional
FaDu = assay: Growth inhibition of human FADU cells at 10 uM; type: functional
SCC-9 = assay: Growth inhibition of human SCC9 cells at 10 uM; type: functional
SCC-25 = assay: Growth inhibition of human SCC25 cells at 10 uM; type: functional
[12] = Growth inhibition of human Detroit 562 cells at 10 uM; type: functional
HT-29 = assay: Induction of apoptosis in human HT-29 cells; type: functional, cell-based
[13] = Toxicity in rat; type: organism-based; conditions: in vivo
NCI-H460 [14] = assay: Cytotoxicity against human NCI-H460 cells assessed as growth inhibition at 100 ug/ml after 24 hrs by MTT assay; type: functional; conditions: NCI-H460, 24 h, read-out: GI
NCI-H460 [15] = assay: Cytotoxicity against human NCI-H460 cells assessed as growth inhibition at 10 ug/ml after 24 hrs by MTT assay; type: functional; conditions: NCI-H460, 24 h, read-out: GI
NCI-H460 [16] = assay: Cytotoxicity against human NCI-H460 cells assessed as growth inhibition at 1 ug/ml after 24 hrs by MTT assay; type: functional; conditions: NCI-H460, 24 h, read-out: GI
[17] = Cytotoxicity against human HO8910 cells assessed as growth inhibition at 10 ug/ml after 24 hrs by MTT assay; type: functional; conditions: HO-8910, 24 h, read-out: GI
PC-3 [18] = assay: Cytotoxicity against human PC3 cells assessed as growth inhibition at 100 ug/ml after 24 hrs by MTT assay; type: functional; conditions: PC-3, 24 h, read-out: GI
PC-3 [19] = assay: Cytotoxicity against human PC3 cells assessed as growth inhibition at 10 ug/ml after 24 hrs by MTT assay; type: functional; conditions: PC-3, 24 h, read-out: GI
PC-3 [20] = assay: Cytotoxicity against human PC3 cells assessed as growth inhibition at 1 ug/ml after 24 hrs by MTT assay; type: functional; conditions: PC-3, 24 h, read-out: GI
PC-3 [21] = assay: Cytotoxicity against human PC3 cells assessed as growth inhibition at 0.1 ug/ml after 24 hrs by MTT assay; type: functional; conditions: for inhibition of growth at 0.1 µg/mL: PC-3, 24 h, read-out: GI
Bel-7402 [22] = assay: Cytotoxicity against human Bel7402 cells assessed as growth inhibition at 0.1 ug/ml after 24 hrs by MTT assay; type: functional; conditions: Bel-7402, 24 h, read-out: GI
CCRF S-180 [23] = assay: Antitumor activity against mouse S180 cells xenografted in ICR mouse assessed as reduction of tumor weight at 100 mg/kg, ig administered 2 days after tumor inoculation qd for 7 days; type: functional; conditions: route intragastric
CCRF S-180 [24] = assay: animal or person; conditions: Mus musculus, CCRF S-180, po, read-out: INH
Description: Antitumor activity against mouse S180 cells xenografted in ICR mouse assessed as inhibition of tumor weight at 100 mg/kg, ig administered 2 days after tumor inoculation qd for 7 days relative to control

DU-145 = assay: Cytotoxicity against human DU145 cells; type: functional, cell-based
CCRF S-180 [25] = assay: Antitumor activity against mouse S180 cells xenografted in ICR mouse assessed as reduction of tumor weight at 200 mg/kg, ig administered 2 days after tumor inoculation qd for 7 days; type: functional; conditions: route intragastric

SMILES | inhibition of growth at 0.1 µg/mL (NCI-H460 [1]) | inhibition of growth at 100 µg/mL [2] | inhibition of growth at 1 µg/mL [3] | inhibition of growth at 0.1 µg/mL [4] | inhibition of growth at 100 µg/mL (KB [5]) | inhibition of growth at 10 µg/mL (KB [6]) | inhibition of growth at 1 µg/mL (KB [7]) | inhibition of growth at 0.1 µg/mL (KB [8]) | inhibition of growth at 100 µg/mL (Bel-7402 [9]) | inhibition of growth at 10 µg/mL (Bel-7402 [10]) | inhibition of growth at 1 µg/mL (Bel-7402 [11]) | inhibition of growth at 100 µg/mL (NCI-H460 [14]) | inhibition of growth at 10 µg/mL (NCI-H460 [15]) | inhibition of growth at 1 µg/mL (NCI-H460 [16]) | inhibition of growth at 10 µg/mL [17] | inhibition of growth at 100 µg/mL (PC-3 [18]) | inhibition of growth at 10 µg/mL (PC-3 [19]) | inhibition of growth at 1 µg/mL (PC-3 [20]) | inhibition of growth at 0.1 µg/mL (PC-3 [21]) | IC50 (DU-145) | further results
O=C(O)CCCCC1CCSS1 (stereo not drawn) [LIPOIC ACID, ALPHA] | 8.71% | 5.11% | 1.05% | 3.39% | 11% | 7.18% | 8.6% | 0.14% | 8.17% | 4.77% | 2.52% | 5.72% | 2.39% | 4.65% |  |  |  |  |  |  | Activity (SMMC-7721): 65%; inhibition at 10 µM (FaDu): 50%; inhibition at 10 µM (SCC-9): 50%; inhibition at 10 µM (SCC-25): 50%; inhibition at 10 µM [12]: 50%; EC50 (HT-29): 250 µM; LD50 [13]: 2000 mg/kg
O=C(CCCCC1CCSS1)Nc1ccc(F)cc1 (stereo not drawn) | 15.6% | 78.1% | 5.82% | 6.59% | 85.4% | 4.44% | 4.05% | 11.3% | 74.5% | 1.92% | 1.79% | 64.5% | 18.8% | 11.4% | 3.89% | 80.8% | 13.8% | 14.5% | 15.6% |  | 
O=C(O)CCCC[C@@H](S)CCS [DIHYDROLIPOIC ACID] | 9.25% | 1.17% | 3.93% |  | 16.3% | 3.38% | 8.79% | 12% | 0.59% | 5.59% | 6.98% | 7.84% | 5.02% | 12.2% |  |  |  |  |  |  | inhibition of growth at 0.1 µg/mL (Bel-7402 [22]): 10.4%; EC50 (HT-29): 250 µM
O=C(CCCCC(S)CCS)Nc1ccc(Cl)cn1 (stereo not drawn) |  | 71.2% |  | 2.65% | 76.5% | 21.6% |  |  | 50.7% | 17.8% | 2.34% | 55.8% | 27.4% |  | 21.9% | 32.4% | 10.8% | 0.89% |  |  | growth inhibition (GI) (PC-3 [21]): inactive
O=P1(N(CCCl)CCCl)NCCCO1 (stereo not drawn) [CYCLOPHOSPHAMIDE ANHYDROUS] |  |  |  |  |  |  |  |  |  |  |  |  |  |  |  |  |  |  |  |  | Activity (CCRF S-180 [23]): 0.39 g; inhibition in vivo at 100 mg/kg (CCRF S-180 [24]): 74.5%
CSCCCC(=O)SCCC(CCCCC(=O)OCCN(C)C)SC(=O)CCCSC (stereo not drawn) |  |  |  |  |  |  |  |  |  |  |  |  |  |  |  |  |  |  |  | 240 µM | 
CS/C=C/C(=O)SCCC(CCCCC(=O)OCCN(C)C)SC(=O)/C=C/SC (stereo not drawn) |  |  |  |  |  |  |  |  |  |  |  |  |  |  |  |  |  |  |  | 45 µM | 
O=C(CCCCCCC(=O)Nc1ccccc1)NO [VORINOSTAT] |  |  |  |  |  |  |  |  |  |  |  |  |  |  |  |  |  |  |  |  | Activity (CCRF S-180 [23]): 1.61 g; Activity (CCRF S-180 [25]): 1.53 g
O=C(CCCCC1CCSS1)Nc1cccc(C(F)(F)F)c1 (stereo not drawn) |  | 74.8% | 4.76% | 5% | 80% | 10.9% | 9.5% | 0.33% | 61.9% | 4.43% |  | 68.8% | 6.77% | 4.39% | 5.99% | 88.7% | 38.5% | 8.44% | 6.27% |  | 
O=C(CCCCC1CCSS1)Nc1ccccc1 (stereo not drawn) | 9.48% | 57.8% | 10.9% | 11.2% | 65.3% | 10.2% | 6.06% | 10.9% | 60.6% | 2.27% | 3.28% | 47.6% | 0.75% | 5.86% | 4.71% | 59.2% | 13% | 13.6% | 5.5% |  | inhibition of growth at 0.1 µg/mL (Bel-7402 [22]): 3.22%
COC(=O)CCCCC(CCSC(=O)CCCSC)SC(=O)CCCSC (stereo not drawn) |  |  |  |  |  |  |  |  |  |  |  |  |  |  |  |  |  |  |  | 400 µM | 
O=C(CCCCC1CCSS1)Nc1ccc(OC(F)(F)F)cc1 (stereo not drawn) | 7.05% | 84.5% | 10% | 5.53% | 90.1% | 8.49% | 1.54% | 1.97% | 78.4% | 1.24% | 0.29% | 83% | 20.3% | 12.2% | 8.57% | 88.5% | 38.2% | 10.8% | 6.69% |  | 
CS/C=C\C(=O)SCCC(CCCCC(=O)OCCN(C)C)SC(=O)/C=C\SC (stereo not drawn) |  |  |  |  |  |  |  |  |  |  |  |  |  |  |  |  |  |  |  | 50 µM | 
